The target of assay [1] is T1, THR beta-LBD (Homo sapiens, UniProt P10828).
T1 construct: THR beta-LBD (the final concentration is 0.5 nM) was added to the 384-well assay plate; purchased Invitrogen PV4686
T1 sequence (P10828 217-461 limits assumed): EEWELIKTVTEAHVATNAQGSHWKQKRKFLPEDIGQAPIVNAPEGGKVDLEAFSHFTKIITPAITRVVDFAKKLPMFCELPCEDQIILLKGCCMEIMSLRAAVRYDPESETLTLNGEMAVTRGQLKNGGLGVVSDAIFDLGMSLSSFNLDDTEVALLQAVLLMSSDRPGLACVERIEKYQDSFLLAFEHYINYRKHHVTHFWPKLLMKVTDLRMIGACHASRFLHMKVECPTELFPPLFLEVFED
Put plainly: THR-β Coactivator Peptide Recruitment Assay (LanthaScreen TR-FRET). The assay is classed as biochemical. The conditions noted are these: TR-FRET coactivator recruitment, THR beta-LBD 0.5 nM; for EC50: read-out: THRβ EC50. Summed up: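 Agonist-driven coactivator recruitment read as a 520/495 nm TR-FRET emission ratio after 2 h at room temperature. Final concentrations: THR beta-LBD 0.5 nM, fluorescein-SRC2-2 peptide 0.1 nM, terbium anti-GST antibody 2 nM. EC50 from four-parameter dose-response fitting.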

Assay [2] concerns the target T2, THR alpha-LBD (Homo sapiens, UniProt P10827).
T2 construct: except that THR alpha-LBD of a final concentration 0.25 nM was used; purchased Invitrogen PV4687
Put plainly: THR-α Coactivator Peptide Recruitment Assay (LanthaScreen TR-FRET). Type of assay: biochemical. The conditions noted are these: TR-FRET coactivator recruitment, THR alpha-LBD 0.25 nM; for EC50: read-out: THRα EC50. The gist of the method: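 TR-FRET coactivator recruitment with THR alpha-LBD at 0.25 nM final, Fluorescein-SRC2-2 peptide 0.1 nM and Tb-labeled anti-GST antibody 2 nM; 2 h incubation at room temperature. 520/495 nm emission ratio fitted to a four-parameter sigmoidal curve to give EC50.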

T2 sequence (P10827 163-410 isoform P10827-2 limits assumed, other chains not shown): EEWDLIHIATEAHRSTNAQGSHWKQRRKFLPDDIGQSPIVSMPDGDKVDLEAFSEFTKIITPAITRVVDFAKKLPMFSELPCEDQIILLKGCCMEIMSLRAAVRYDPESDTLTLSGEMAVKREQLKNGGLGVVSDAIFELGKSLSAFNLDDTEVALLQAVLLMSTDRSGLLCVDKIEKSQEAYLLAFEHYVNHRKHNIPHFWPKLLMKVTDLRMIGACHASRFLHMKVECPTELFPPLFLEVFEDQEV

As to `O=c1[nH]c(=O)n(-c2cc(Cl)c(Oc3cc(S(=O)(=O)N4CC(F)(F)C4)c(O)cn3)c(Cl)c2)nc1C(F)F` [Compound 109, 2-(3,5-dichloro-4-((4-((3,3-difluoroazetidin-1-yl)sulfonyl)-5-hydroxypyridin-2-yl)oxy)phenyl)-6-(difluoromethyl)-1,2,4-triazine-3,5(2H,4H)-dione], in assay [1], the “THRβ Emax” value was “B (75~90)” and the half-maximal effective concentration (EC50) is below 2 nM. Further, in assay [2], the “THRα Emax” value is listed as “A (85~110)” and the EC50 was in the range of 2 to 200 nM.
As to `CNS(=O)(=O)c1cc(Oc2c(Cl)cc(-n3nc(C(F)(F)F)c(=O)[nH]c3=O)cc2Cl)ccc1O` [Compound 20, 5-(2,6-dichloro-4-(3,5-dioxo-6-(trifluoromethyl)-4,5-dihydro-1,2,4-triazin-2(3H)-yl)phenoxy)-2-hydroxy-N-methylbenzenesulfonamide], in assay [1], the “THRβ Emax” value was “A (90~110)” and the EC50 is 2 to 20 nM. In assay [2], the “THRα Emax” value is given as “A (85~110)” and the concentration for a half-maximal effect (EC50) was in the range of 2 to 200 nM.
Turning to `O=c1[nH]c(=O)n(-c2cc(Cl)c(Oc3cc(S(=O)(=O)N[C@@H]4CCOC4)c(O)cn3)c(Cl)c2)nc1C(F)F` [Compound 106, (R)-2-(2,6-dichloro-4-(6-(difluoromethyl)-3,5-dioxo-4,5-dihydro-1,2,4-triazin-2(3H)-yl)phenoxy)-5-hydroxy-N-(tetrahydrofuran-3-yl)pyridine-4-sulfonamide], in assay [1], the “THRβ Emax” value is given as “B (75~90)” and the half-maximal effective concentration (EC50) was in the range of 2 to 20 nM. In assay [2], the “THRα Emax” value is recorded as “A (85~110)” and the EC50 fell in the range of 2 to 200 nM.
For `CS(=O)(=O)N[C@H]1CCN(S(=O)(=O)c2cc(Oc3c(Cl)cc(-n4nc(C(F)F)c(=O)[nH]c4=O)cc3Cl)ccc2O)C1` [Compound 46, N-[(3S)-1-[5-[2,6-dichloro-4-[6-(difluoromethyl)-3,5-dioxo-1,2,4-triazin-2-yl]phenoxy]-2-hydroxy-phenyl]sulfonylpyrrolidin-3-yl]methanesulfonamide], in assay [1], the “THRβ Emax” value is “B (75~90)” and the EC50 was below 2 nM. Besides, in assay [2], the “THRα Emax” value was “B (40~85)” and the EC50 was in the range of 2 to 200 nM.
For the compound `O=C(NC1CCC1)c1cc(Oc2c(Cl)cc(-n3nc(C(F)(F)F)c(=O)[nH]c3=O)cc2Cl)c(F)cc1O` [Compound 10, N-cyclobutyl-5-[2,6-dichloro-4-[3,5-dioxo-6-(trifluoromethyl)-1,2,4-triazin-2-yl]phenoxy]-4-fluoro-2-hydroxy-benzamide], in assay [1], the “THRβ Emax” value is “B (75~90)” and the EC50 is above 100 nM. In addition, in assay [2], the “THRα Emax” value was “C (<40)” and the 50% effective concentration (EC50) was above 1000 nM.
In the same order, the values of `O=C(c1cc(Oc2c(Cl)cc(-n3nc(Cl)c(=O)[nH]c3=O)cc2Cl)ccc1O)N1C[C@H]2CC[C@@H]1C2` (single isomer, unassigned) [Compound 7] are “A (90~110)”, below 2 nM, “A (85~110)” and 2 to 200 nM.
For `O=c1[nH]c(=O)n(-c2cc(Cl)c(Oc3ccc(O)c(S(=O)(=O)NC45CC(O)(C4)C5)c3)c(Cl)c2)nc1C(F)F` [Compound 81, 5-(2,6-dichloro-4-(6-(difluoromethyl)-3,5-dioxo-4,5-dihydro-1,2,4-triazin-2(3H)-yl)phenoxy)-2-hydroxy-N-(3-hydroxybicyclo[1.1.1]pentan-1-yl)benzenesulfonamide], in assay [1], the “THRβ Emax” value is on record as “A (90~110)” and the EC50 is 2 to 20 nM. In assay [2], the “THRα Emax” value is given as “A (85~110)” and the concentration giving a half-maximal response (EC50) lay within 2 to 200 nM.
The like results for `O=C(N1CCCC1)C1(NS(=O)(=O)c2cc(Oc3c(Cl)cc(-n4nc(C(F)F)c(=O)[nH]c4=O)cc3Cl)ncc2O)CC1` [Compound 118, 2-(2,6-dichloro-4-(6-(difluoromethyl)-3,5-dioxo-4,5-dihydro-1,2,4-triazin-2(3H)-yl)phenoxy)-5-hydroxy-N-(1-(pyrrolidine-1-carbonyl)cyclopropyl)pyridine-4-sulfonamide] were, in that order, “B (75~90)”, above 100 nM, “C (<40)” and above 1000 nM.
Consider `CNC(=O)N1CC(NS(=O)(=O)c2cc(Oc3c(Cl)cc(-n4nc(C(F)F)c(=O)[nH]c4=O)cc3Cl)ccc2O)C1` [Compound 57, 3-((5-(2,6-dichloro-4-(6-(difluoromethyl)-3,5-dioxo-4,5-dihydro-1,2,4-triazin-2(3H)-yl)phenoxy)-2-hydroxyphenyl)sulfonamido)-N-methylazetidine-1-carboxamide], for which, in assay [1], the “THRβ Emax” value was “C (<75)” and the EC50 is 20 to 100 nM. In assay [2], the “THRα Emax” value is on record as “C (<40)” and the concentration giving a half-maximal response (EC50) is above 1000 nM.
The like results for `O=c1[nH]c(=O)n(-c2cc(Cl)c(Oc3cc(S(=O)(=O)N4CC(O)C4)c(O)cn3)c(Cl)c2)nc1C(F)F` [Compound 107, 2-(3,5-dichloro-4-((5-hydroxy-4-((3-hydroxyazetidin-1-yl)sulfonyl)pyridin-2-yl)oxy)phenyl)-6-(difluoromethyl)-1,2,4-triazine-3,5(2H,4H)-dione] were, in that order, “B (75~90)”, 2 to 20 nM, “B (40~85)” and 2 to 200 nM.
In the same order, the values of `O=C(NC1CC(F)(F)C1)c1cc(Oc2c(Cl)cc(-n3nc(C(F)(F)F)c(=O)[nH]c3=O)cc2Cl)ccc1O` [Compound 3, 5-[2,6-dichloro-4-[3,5-dioxo-6-(trifluoromethyl)-1,2,4-triazin-2-yl]phenoxy]-N-(3,3-difluorocyclobutyl)-2-hydroxy-benzamide] are “A (90~110)”, 20 to 100 nM, “B (40~85)” and above 1000 nM.
On to `O=c1[nH]c(=O)n(-c2cc(Cl)c(Oc3cc(S(=O)(=O)N[C@@H]4CC[C@H]4O)c(O)cn3)c(Cl)c2)nc1C(F)F` (stereo in doubt) [Compound 171, 2-[2,6-dichloro-4-[6-(difluoromethyl)-3,5-dioxo-1,2,4-triazin-2-yl]phenoxy]-5-hydroxy-N-[(1R,2R)-2-hydroxycyclobutyl]pyridine-4-sulfonamide], for which, in assay [1], the “THRβ Emax” value is “C (<75)” and the EC50 lay in the range of 20 to 100 nM. In addition, in assay [2], the “THRα Emax” value is listed as “C (<40)” and the concentration for a half-maximal effect (EC50) lay in the range of 200 to 1000 nM.
Turning to `CCS(=O)(=O)N[C@H]1CCN(S(=O)(=O)c2cc(Oc3c(Cl)cc(-n4nc(C(F)F)c(=O)[nH]c4=O)cc3Cl)ccc2O)C1` [Compound 55, (S)-N-(1-((5-(2,6-dichloro-4-(6-(difluoromethyl)-3,5-dioxo-4,5-dihydro-1,2,4-triazin-2(3H)-yl)phenoxy)-2-hydroxyphenyl)sulfonyl)pyrrolidin-3-yl)ethanesulfonamide], in assay [1], the “THRβ Emax” value was “B (75~90)” and the EC50 was below 2 nM. Further, in assay [2], the “THRα Emax” value is “B (40~85)” and the EC50 fell in the range of 2 to 200 nM.
As to `N#Cc1cc(O)c(S(=O)(=O)N[C@H]2C[C@H](O)C2)cc1Oc1c(Cl)cc(-n2nc(C(F)F)c(=O)[nH]c2=O)cc1Cl` [Compound 149, 4-cyano-5-[2,6-dichloro-4-[6-(difluoromethyl)-3,5-dioxo-1,2,4-triazin-2-yl]phenoxy]-2-hydroxy-N-(3-hydroxycyclobutyl)benzenesulfonamide], in assay [1], the “THRβ Emax” value is “C (<75)” and the EC50 is above 100 nM. Further, in assay [2], the “THRα Emax” value is reported as “C (<40)” and the EC50 was above 1000 nM.
For `O=C(NC1CC1)C1(NS(=O)(=O)c2cc(Oc3c(Cl)cc(-n4nc(C(F)(F)F)c(=O)[nH]c4=O)cc3Cl)ccc2O)CC1` [Compound 93, N-cyclopropyl-1-((5-(2,6-dichloro-4-(3,5-dioxo-6-(trifluoromethyl)-4,5-dihydro-1,2,4-triazin-2(3H)-yl)phenoxy)-2-hydroxyphenyl)sulfonamido)cyclopropane-1-carboxamide], in assay [1], the “THRβ Emax” value was “B (75~90)” and the EC50 was in the range of 20 to 100 nM. In assay [2], the “THRα Emax” value is given as “C (<40)” and the EC50 was above 1000 nM.
For the compound `CS(=O)(=O)N1CC(NS(=O)(=O)c2cc(Oc3c(Cl)cc(-n4nc(C(F)F)c(=O)[nH]c4=O)cc3Cl)ccc2O)C1` [Compound 54, 5-(2,6-dichloro-4-(6-(difluoromethyl)-3,5-dioxo-4,5-dihydro-1,2,4-triazin-2(3H)-yl)phenoxy)-2-hydroxy-N-(1-(methylsulfonyl)azetidin-3-yl)benzenesulfonamide], in assay [1], the “THRβ Emax” value is listed as “C (<75)” and the EC50 was 20 to 100 nM. In assay [2], the “THRα Emax” value was “B (40~85)” and the concentration giving a half-maximal response (EC50) is 200 to 1000 nM.
For the compound `O=c1[nH]c(=O)n(-c2cc(Cl)c(Oc3cc(S(=O)(=O)NC4CC(F)(F)C4)c(O)cn3)c(Cl)c2)nc1C(F)F` [Compound 105, 2-(2,6-dichloro-4-(6-(difluoromethyl)-3,5-dioxo-4,5-dihydro-1,2,4-triazin-2(3H)-yl)phenoxy)-N-(3,3-difluorocyclobutyl)-5-hydroxypyridine-4-sulfonamide], in assay [1], the “THRβ Emax” value is recorded as “B (75~90)” and the 50% effective concentration (EC50) was below 2 nM. Moreover, in assay [2], the “THRα Emax” value is reported as “A (85~110)” and the concentration giving a half-maximal response (EC50) was in the range of 2 to 200 nM.

For the origin of these results see patent US12291518B2, “Thyroid hormone receptor agonists and use thereof” (Eccogene Inc., priority 2020, dated 2025).
